Assay results published in patent US20250313546A1, “NUCLEIC ACID BINDERS” (UNIVERSITY OF STRATHCLYDE, priority 2022, published 2025).
In brackets after ≈: the same amount, converted by molar mass. Read-outs that look alike come from different tables or passages of the source.

Experiments:
C. albicans (ATCC 90028) = settings: Candida albicans, ATCC90028, read-out: MIC99 C. albicans
A. flavus (CBS 128.202) = settings: Aspergillus flavus, CBS128, read-out: MIC99 A. flavus
Description: (§2) The Minimum Inhibitory Concentration (MIC, at 99% inhibition) of the compounds was determined using the broth microdilution method as recommended by EUCAST (EUCAST Definitive Document E.DEF 9.3.2, Method for the determination of broth dilution minimum inhibitory concentrations of antifungal agents for conidia forming moulds and EUCAST Definitive Document E.DEF 7.3.2 Method for the determination of broth dilution minimum inhibitory concentrations of antifungal agents for yeasts).

T. equiperdum = experiment: Resazurin-based (Alamar blue) drug sensitivity assay; settings: Trypanosoma equiperdum, read-out: IC50 T. equiperdum
[1] = tested on: Enterococcus faecalis (ATCC 51299); experiment: Antibacterial MIC, broth microdilution (CLSI); assay type: cell-based; settings: for MIC80: Enterococcus faecalis, ATCC51299, read-out: MIC80 E. faecalis
[2] = tested on: Genomic double stranded DNA (salmon); experiment: Fluorescence intercalator displacement (FID) assay, SYBR-safe probe; settings: 20 μM compound, 30° C., lower % = stronger binding
How it was run: (§1)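 Probe displacement was measured at 30 °C in 1 mM phosphate pH 7.4 containing SybrSafe (12500-fold dilution), 3.76 ng/mL nucleic acid (salmon dsDNA or polyAU dsRNA) and 20 μM compound. Fluorescence loss is normalised between probe-only and probe-plus-nucleic-acid controls.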

[3] = tested on: PolyAU double stranded RNA; experiment: as above; settings: 20 μM compound, 30° C., lower % = stronger binding
How it was run: as §1

[4] = tested on: A. fumigatus A1160 (MFIG001); settings: Aspergillus fumigatus, read-out: MIC99 A. fumigatus A1160
Description: as §2

[5] = tested on: Scedosporium prolificans (F2746); settings: Lomentospora prolificans, read-out: MIC99 Scedosporium prolificans
Candida auris (H.17.157) = settings: Candidozyma auris, read-out: MIC99 Candida auris
Description: as §2

[6] = tested on: Staphylococcus aureus (ATCC 43300); experiment: Antibacterial MIC, broth microdilution (CLSI); assay type: cell-based; settings: for MIC80: Staphylococcus aureus, ATCC43300, read-out: MIC80 S. aureus
[7] = tested on: Candida glabrata (ACPF3309); settings: Nakaseomyces glabratus, read-out: MIC99 Candida glabrata
Description: as §2

[8] = tested on: Rhizopus arrhizus (NEQAS12.35321); settings: read-out: MIC99 Rhizopus arrhizus
[9] = tested on: Escherichia coli (ATCC 25922); experiment: Antibacterial MIC, broth microdilution (CLSI); assay type: cell-based; settings: Escherichia coli, ATCC25922; read-out: MIC80 E. coli
[10] = tested on: Fusarium oxysporum (F7098); settings: read-out: MIC99 Fusarium oxysporum
Description: as §2

C. neoformans (F10025) = settings: Cryptococcus neoformans, read-out: MIC99 C. neoformans
T. evansi AntTat 3/3 = experiment: Resazurin-based (Alamar blue) drug sensitivity assay; settings: read-out: IC50 T. evansi
C. krusei = experiment: Expanded set of yeasts, MIC broth microdilution (CLSI); assay type: cell-based; settings: Pichia kudriavzevii, ATCC6258; isolate ATCC 6258; MIC at 50% inhibition
C. albicans = experiment: as above; assay type: cell-based; settings: MIC at 50% inhibition; for MIC50: Candida albicans
Fusarium solani = experiment: Expanded set of filamentous fungi, MIC broth microdilution (CLSI); assay type: cell-based; settings: MIC at 50% inhibition
Fusarium oxysporum = experiment: as above; assay type: cell-based; settings: MIC at 50% inhibition
Paecilomyces variotii = experiment: as above; assay type: cell-based; settings: isolate MYA-3630, MIC at 50% inhibition
Aspergillus flavus = experiment: as above; assay type: cell-based; settings: MIC at 50% inhibition; for MIC50: Aspergillus flavus
C. glabrata = experiment: Expanded set of yeasts, MIC broth microdilution (CLSI); assay type: cell-based; settings: Nakaseomyces glabratus, MIC at 50% inhibition
Aspergillus fumigatus = experiment: Expanded set of filamentous fungi, MIC broth microdilution (CLSI); assay type: cell-based
C. guilliiermondii = experiment: Expanded set of yeasts, MIC broth microdilution (CLSI); assay type: cell-based; settings: MIC at 50% inhibition
C. auris = experiment: as above; assay type: cell-based; settings: MIC at 50% inhibition
Blastomyces dermatitidis = experiment: Expanded set of filamentous fungi, MIC broth microdilution (CLSI); assay type: cell-based
Lomentospora prolificans = experiment: as above; assay type: cell-based; settings: isolate S2, MIC at 50% inhibition
Candida parapsilosis = experiment: Expanded set of yeasts, MIC broth microdilution (CLSI); assay type: cell-based; settings: MIC at 50% inhibition; for MIC50: Lodderomyces parapsilosis
Scedosporium spp. = experiment: Expanded set of filamentous fungi, MIC broth microdilution (CLSI); assay type: cell-based
Rhizopus arrhizus = experiment: as above; assay type: cell-based
[11] = SI, IC50 (μM)/MIC80 (μM), HEK293 cytotoxicity, Alkyl Amidines and NH Pyrroles

`Cn1cc(NC(=O)c2cc(NC(=O)c3ccc(/C=C/c4ccc5nonc5c4)cc3)c[nH]2)cc1C(=O)NCCC(=N)N` [IIIa1, (E)-N-(3-amino-3-iminopropyl)-4-(4-(4-(2-(benzo[c][1,2,5]oxadiazol-5-yl)vinyl)benzamido)-1H-pyrrole-2-carboxamido)-1-methyl-1H-pyrrole-2-carboxamide] gave an MIC99 (C. albicans (ATCC 90028)) of 25 to 50 µg/mL (≈ 44.2 to 88.4 µM), an MIC99 (A. flavus (CBS 128.202)) of 5 to 25 µg/mL (≈ 8.84 to 44.2 µM) and an IC50 (T. equiperdum) of 10 to 100 nM. The MIC80 [1] was 5 to 25 µM (≈ 2.83 to 14.1 µg/mL), the “E. faecalis Selectivity Indices, Group” value [1, 11] was “B (Group B: 3 < SI <= 5)” and the “% Normalised Fluorescence with gDNA” value [2] was 17%. The “% Normalised Fluorescence with polyAU RNA” value [3] was 18%, the MIC99 [4] was 5 to 25 µg/mL (≈ 8.84 to 44.2 µM) and the MIC99 [5] was 5 to 25 µg/mL (≈ 8.84 to 44.2 µM). For the same molecule, the MIC99 (Candida auris (H.17.157)) was greater than 50 µg/mL, the “S. aureus Selectivity Indices, Group” value [6, 11] was “C (Group C: 5 < SI <= 10)” and the MIC80 [6] was less than 5 µM. It also gave an MIC99 [7] of less than 5 µg/mL, an MIC99 [8] of 5 to 25 µg/mL (≈ 8.84 to 44.2 µM) and an MIC80 [9] greater than 100 µM. For the same molecule, the MIC99 [10] was 5 to 25 µg/mL (≈ 8.84 to 44.2 µM), the MIC99 (C. neoformans (F10025)) was less than 5 µg/mL and the IC50 (T. evansi AntTat 3/3) was 10 to 100 nM.
`CNC(=N)CCNC(=O)c1cc(NC(=O)c2cc(NC(=O)c3ccc(/C=C/c4cnc5ccccc5c4)cc3)cn2C)cn1C` [Ia27, (E)-N-(3-imino-3-(methylamino)propyl)-1-methyl-4-(1-methyl-4-(4-(2-(quinolin-3-yl)vinyl)benzamido)-1H-pyrrole-2-carboxamido)-1H-pyrrole-2-carboxamide] showed an MIC50 (C. krusei) of no more than 1 µg/mL, an MIC50 (C. albicans; isolate CA3) of 1 to 8 µg/mL (≈ 1.66 to 13.3 µM) and an MIC50 (C. albicans; isolate SC5314) of 1 to 8 µg/mL (≈ 1.66 to 13.3 µM). For the same molecule, the “MIC50 C. albicans” value (C. albicans; isolate CA90028) was “** (** means 1 μg/mL < MIC50 <= 8 μg/mL)”, the MIC80 [1] was less than 5 µM and the “% Normalised Fluorescence with gDNA” value [2] was 13%. The “% Normalised Fluorescence with polyAU RNA” value [3] was 17%, the MIC50 (Fusarium solani; Fusarium solani, isolate F4) was no more than 1 µg/mL and the “MIC50 Fusarium solani” value (Fusarium solani; isolate DI19-284) was “*** (*** means MIC50 <= 1 μg/mL)”. For the same molecule, the MIC50 (Fusarium oxysporum; Fusarium oxysporum, isolate F2) was no more than 1 µg/mL, the “MIC50 Fusarium oxysporum” value (Fusarium oxysporum; isolate F3) was “*** (*** means MIC50 <= 1 μg/mL)” and the MIC50 (Paecilomyces variotii) was 1 to 8 µg/mL (≈ 1.66 to 13.3 µM). The MIC50 (Aspergillus flavus; ATCC204304, isolate ATCC 204304) was no more than 1 µg/mL, the MIC50 (Aspergillus flavus; isolate Aflav2) was no more than 1 µg/mL and the “MIC50 Aspergillus flavus” value (Aspergillus flavus; isolate Aflav3) was “*** (*** means MIC50 <= 1 μg/mL)”. For the same molecule, the MIC80 [6] was less than 5 µM, the MIC50 (C. glabrata; isolate 05-62) was no more than 1 µg/mL and the MIC50 (C. glabrata; isolate 05-761) was no more than 1 µg/mL. It also gave an MIC50 (C. glabrata; isolate CG3) of no more than 1 µg/mL, an MIC50 (Aspergillus fumigatus; isolate AF293, MIC at 50% inhibition) of no more than 1 µg/mL and an MIC50 (Aspergillus fumigatus; isolate DI15-106, MIC at 50% inhibition) of no more than 1 µg/mL. For the same molecule, the MIC50 (Aspergillus fumigatus; isolate DI15-116, MIC at 50% inhibition) was no more than 1 µg/mL, the MIC50 (Aspergillus fumigatus; isolate DI19-187, MIC at 50% inhibition) was no more than 1 µg/mL and the MIC50 (Aspergillus fumigatus; isolate DI19-230, MIC at 50% inhibition) was no more than 1 µg/mL. For the same molecule, the MIC50 (Aspergillus fumigatus; isolate DI19-231, MIC at 50% inhibition) was no more than 1 µg/mL, the MIC50 (Aspergillus fumigatus; isolate DI19-232, MIC at 50% inhibition) was no more than 1 µg/mL and the MIC50 (Aspergillus fumigatus; isolate DI19-233, MIC at 50% inhibition) was no more than 1 µg/mL. It also gave an MIC50 (Aspergillus fumigatus; isolate DI19-234, MIC at 50% inhibition) of no more than 1 µg/mL, an MIC50 (Aspergillus fumigatus; isolate DI19-236, MIC at 50% inhibition) of no more than 1 µg/mL and an MIC50 (Aspergillus fumigatus; isolate DI19-237, MIC at 50% inhibition) of no more than 1 µg/mL. It also gave an MIC50 (Aspergillus fumigatus; isolate DI20-95, MIC at 50% inhibition) of no more than 1 µg/mL, an MIC50 (Aspergillus fumigatus; isolate DI20-103, MIC at 50% inhibition) of no more than 1 µg/mL and an MIC50 (C. guilliiermondii; isolate Cgui1) of 1 to 8 µg/mL (≈ 1.66 to 13.3 µM). For the same molecule, the “MIC50 C. guilliiermondii” value (C. guilliiermondii; isolate Cgui2) was “** (** means 1 μg/mL < MIC50 <= 8 μg/mL)”, the “MIC50 C. guilliiermondii” value (C. guilliiermondii; isolate Cgui3) was “** (** means 1 μg/mL < MIC50 <= 8 μg/mL)” and the MIC50 (C. auris; Candidozyma auris, isolate DI17-47) was 1 to 8 µg/mL (≈ 1.66 to 13.3 µM). For the same molecule, the “MIC50 C. auris” value (C. auris; isolate DI17-46) was “** (** means 1 μg/mL < MIC50 <= 8 μg/mL)”, the “MIC50 C. auris” value (C. auris; isolate DI17-48) was “** (** means 1 μg/mL < MIC50 <= 8 μg/mL)” and the MIC50 (Blastomyces dermatitidis; isolate BD1, MIC at 50% inhibition) was 1 to 8 µg/mL (≈ 1.66 to 13.3 µM). The MIC50 (Blastomyces dermatitidis; isolate BD2, MIC at 50% inhibition) was 1 to 8 µg/mL (≈ 1.66 to 13.3 µM), the MIC50 (Blastomyces dermatitidis; isolate BD3, MIC at 50% inhibition) was 8 to 32 µg/mL (≈ 13.3 to 53.1 µM) and the MIC80 [9] was greater than 100 µM. It also gave an MIC50 (Lomentospora prolificans) of no more than 1 µg/mL, an MIC50 (Candida parapsilosis; ATCC22019, isolate ATCC 22019, read-out: MIC50 Candida parapsilosis) of 1 to 8 µg/mL (≈ 1.66 to 13.3 µM) and an MIC50 (Candida parapsilosis; isolate CP1, read-out: MIC50 C. parapsilosis) of 1 to 8 µg/mL (≈ 1.66 to 13.3 µM). For the same molecule, the “MIC50 C. parapsilosis” value (Candida parapsilosis; isolate CP2) was “** (** means 1 μg/mL < MIC50 <= 8 μg/mL)”, the “MIC50 C. parapsilosis” value (Candida parapsilosis; isolate CP3) was “** (** means 1 μg/mL < MIC50 <= 8 μg/mL)” and the MIC50 (Scedosporium spp.; isolate S1, MIC at 50% inhibition) was no more than 1 µg/mL. It also gave an MIC50 (Scedosporium spp.; isolate S3, MIC at 50% inhibition) of no more than 1 µg/mL, an MIC50 (Rhizopus arrhizus; isolate 99-880, MIC at 50% inhibition) of no more than 1 µg/mL and an MIC50 (Rhizopus arrhizus; isolate 99-892, MIC at 50% inhibition) of no more than 1 µg/mL. For the same molecule, the MIC50 (Rhizopus arrhizus; isolate RA3, MIC at 50% inhibition) was 1 to 8 µg/mL (≈ 1.66 to 13.3 µM).
